Columns and labels:
the bacteria tested = assay: Seventh series: sterility examination after termination of the 72 hours trial; type: cell-based; conditions: sterility examination after the 72 hours trial
Text: It can be observed that a nearly immediate effect occurs after inoculation.

Salmonella sp = assay: Second series: number of germs against prolonged time in 0.1% solutions; type: cell-based; conditions: 0.1% solution; for number of test organisms: Salmonella sp
Procedure: (§1) Zinc and sodium hyaluronate solutions of […] (obtained by diluting solutions of 0.5% prepared according to Examples 1 and 2) were artificially infected by the identical germ count of various test organisms and the changing of the number of germs was taken against time. The number of germs was determined in a point of time by plating method. The evaluation was visually carried out at moulds and by using an automated colony counter at bacteria and fungi.
(§2) The effects of 0.1% zinc hyaluronate and sodium hyaluronate solutions, respectively on three distinguished test organisms are illustrated in Table 3.

Staphylococcus aureus = assay: as above; type: cell-based; conditions: 0.1% solution; for number of test organisms: Staphylococcus aureus
Procedure: as §1, §2

Streptococcus sp = assay: Fifth series: MIC and CID by serial dilution; type: cell-based; conditions: serial dilution from 0.2% solution
Procedure: (§3) The antibacterial effect of zinc hyaluronate associate can be characterized by the following values of the minimum inhibitory concentration (MIC) and microbicidal concentration (CID) in comparison to the corresponding values of sodium hyaluronate.
(§4) MIC and CID values were determined by using solutions of 0.2% concentration. The determinations were conducted in a known way: a serial dilution was prepared from the substances to be tested and these solutions were artificially infected by the corresponding dilutions of the selected test organisms. After incubation at a suitable temperature for an appropriate time, the concentration series was visually evaluated and the minimum concentration was determined, which inhibited the growth of microorganisms (MIC value), or induced the death of the microorganisms (CID value).

Escherichia coli = assay: Fifth series: MIC and CID by serial dilution; type: cell-based; conditions: serial dilution from 0.2% solution
Procedure: as §3, §4

Salmonella = assay: Fifth series: MIC and CID by serial dilution; type: cell-based; conditions: serial dilution from 0.2% solution
Procedure: as §3, §4

[1] = system: Helicobacter pylori strain 822/96; assay: Eighth series: MIC on Helicobacter pylori, agar with 10% bovine blood; type: cell-based
Procedure: These investigations were carried out by using 1.0 weight/vol. % zinc hyaluronate solution on Helicobacter pylori strains cultivated from the gastric is biopsy samples of patients suffering from various ulcers. An 1% solution of De-Nol (colloidal bismuth subcitrate) was used as reference substance. Agar culture medium (nutrient medium) supplemented with 10% of bovine blood was used for the investigations. Plates without compound to be tested were used as controls. The inoculated plates were incubated for 3 to 5 days at 37° C. in a gaseous environment containing 5% of oxygen and 7 to 8% of carbon dioxide. The value of minimum inhibitory concentration (MIC) was considered to be the minimum concentration of substances totally inhibiting the propagation of bacteria well-growing on the control plates.

Pseudomonas aeruginosa [2] = assay: Second series: number of germs against prolonged time in 0.1% solutions; type: cell-based; conditions: 0.1% solution
Procedure: as §1, §2

Pseudomonas aeruginosa [3] = assay: Third series: effect of solutions of various concentrations on Pseudomonas aeruginosa; type: cell-based
Procedure: as §1
Due to the ophthalmological importance of Pseudomonas aeruginosa, the effects of zinc hyaluronate solutions of various concentrations on Pseudomonas aeruginosa were studied in comparison to sodium hyaluronate solutions of the same concentrations.

Staphylococcus areus = assay: Fifth series: MIC and CID by serial dilution; type: cell-based, Staphylococcus aureus; conditions: serial dilution from 0.2% solution
Procedure: as §3, §4

**Q.** Which “character of the effect (static or bactericidal)” value (the bacteria tested) does the source give for “cobalt(II) hyaluronate [cobalt hyaluronate]” here?
**A.** bactericidal effect

**Q.** sodium hyaluronate [reference compound] was tested. Which “number of test organisms” value (Salmonella sp; 0 hr) did it give?
**A.** 8.0 × 10^6 Test-organism/ml

**Q.** What about the “number of test organisms” value (Salmonella sp; 24 hrs) of the same substance?
**A.** 8.1 × 10^6 Test-organism/ml

**Q.** And the “number of test organisms” value (Salmonella sp; 48 hrs)?
**A.** 1.2 × 10^6 Test-organism/ml

**Q.** What about the “number of test organisms” value (Salmonella sp; 72 hrs) of the same substance?
**A.** 1.8 × 10^6 Test-organism/ml

**Q.** And the “course of the count over the test time (in words)” value (Salmonella sp; Salmonella)?
**A.** remained practically within the same order

**Q.** And the “number of test organisms” value (Staphylococcus aureus; 0 hr)?
**A.** 1.3 × 10^6 Test-organism/ml

**Q.** And the “number of test organisms” value (Staphylococcus aureus; 24 hrs)?
**A.** 4.1 × 10^6 Test-organism/ml

**Q.** And the “number of test organisms” value (Staphylococcus aureus; 48 hrs)?
**A.** 6.2 × 10^6 Test-organism/ml

**Q.** What about the “number of test organisms” value (Staphylococcus aureus; 72 hrs) of the same substance?
**A.** 8.4 × 10^6 Test-organism/ml

**Q.** And the “course of the count over the test time (in words)” value (Staphylococcus aureus; Staphylococcus)?
**A.** remained practically within the same order

**Q.** Which “CID (microbicidal concentration)” value (Streptococcus sp) does the source give for zinc hyaluronate here?
**A.** 400 µg/mL

**Q.** And the “MIC (minimum inhibitory concentration)” value (Streptococcus sp)?
**A.** 96 µg/mL

**Q.** And the “CID (microbicidal concentration)” value (Escherichia coli)?
**A.** 310 µg/mL

**Q.** What about the “MIC (minimum inhibitory concentration)” value (Escherichia coli) of the same substance?
**A.** 26 µg/mL

**Q.** What about the “CID (microbicidal concentration)” value (Salmonella) of the same substance?
**A.** 160 µg/mL

**Q.** And the “MIC (minimum inhibitory concentration)” value (Salmonella)?
**A.** 5.4 µg/mL

**Q.** And the “in vitro activity compared (in words)” value ([1]; Helicobacter pylori)?
**A.** comparable to the activity of De-Nol

**Q.** What about the MIC ([1]; Helicobacter pylori strain 822/96, 3 to 5 days at 37° C., 5% oxygen, 7 to 8% carbon dioxide) of the same substance?
**A.** 500 µg/mL

**Q.** What about the “number of test organisms” value (Salmonella sp; 0 hr) of the same substance?
**A.** 2.0 × 10^6 Test-organism/ml

**Q.** And the “number of test organisms” value (Salmonella sp; 24 hrs)?
**A.** 1.1 × 10^6 Test-organism/ml

**Q.** What about the “number of test organisms” value (Salmonella sp; 48 hrs) of the same substance?
**A.** 0 Test-organism/ml

**Q.** And the “number of test organisms” value (Salmonella sp; 72 hrs)?
**A.** 0 Test-organism/ml

**Q.** What about the “number of test organisms” value (Salmonella sp; 96 hrs) of the same substance?
**A.** 0 Test-organism/ml

**Q.** What about the “number of test organisms” value (Salmonella sp; 168 hrs) of the same substance?
**A.** 0 Test-organism/ml

**Q.** And the “time until count reduced to zero” value (Salmonella sp; Salmonella)?
**A.** ≤ 48 h

**Q.** And the “number of test organisms” value (Staphylococcus aureus; 0 hr)?
**A.** 4.2 × 10^6 Test-organism/ml

**Q.** What about the “number of test organisms” value (Staphylococcus aureus; 24 hrs) of the same substance?
**A.** 4.6 × 10^6 Test-organism/ml

**Q.** And the “number of test organisms” value (Staphylococcus aureus; 48 hrs)?
**A.** 0 Test-organism/ml

**Q.** And the “number of test organisms” value (Staphylococcus aureus; 72 hrs)?
**A.** 0 Test-organism/ml

**Q.** What about the “number of test organisms” value (Staphylococcus aureus; 96 hrs) of the same substance?
**A.** 0 Test-organism/ml

**Q.** What about the “number of test organisms” value (Staphylococcus aureus; 168 hrs) of the same substance?
**A.** 0 Test-organism/ml

**Q.** And the “time until count reduced to zero” value (Staphylococcus aureus; Staphylococcus)?
**A.** ≤ 48 h

**Q.** What about the “onset of effect (in words)” value (Pseudomonas aeruginosa [2]) of the same substance?
**A.** significant decrease appeared only from the second day

**Q.** What about the “number of test organisms” value (Pseudomonas aeruginosa [2]; 0 hr) of the same substance?
**A.** 2.1 × 10^5 Test-organism/ml

**Q.** What about the “number of test organisms” value (Pseudomonas aeruginosa [2]; 24 hrs) of the same substance?
**A.** 2.4 × 10^4 Test-organism/ml

**Q.** What about the “number of test organisms” value (Pseudomonas aeruginosa [2]; 48 hrs) of the same substance?
**A.** 3.0 × 10^3 Test-organism/ml

**Q.** And the “number of test organisms” value (Pseudomonas aeruginosa [2]; 72 hrs)?
**A.** <100 Test-organism/ml

**Q.** And the “number of test organisms” value (Pseudomonas aeruginosa [2]; 96 hrs)?
**A.** <100 Test-organism/ml

**Q.** What about the “number of test organisms” value (Pseudomonas aeruginosa [2]; 168 hrs) of the same substance?
**A.** 0 Test-organism/ml

**Q.** And the “number of test organisms” value (Pseudomonas aeruginosa [3]; 0.1% solution, 0 hr)?
**A.** 5.5 × 10^5 Test-organism /ml

**Q.** What about the “number of test organisms” value (Pseudomonas aeruginosa [3]; 0.1% solution, 24 hrs) of the same substance?
**A.** 5.0 × 10^5 Test-organism /ml

**Q.** And the “number of test organisms” value (Pseudomonas aeruginosa [3]; 0.1% solution, 48 hrs)?
**A.** 2.0 × 10^3 Test-organism /ml

**Q.** And the “number of test organisms” value (Pseudomonas aeruginosa [3]; 0.1% solution, 72 hrs)?
**A.** <100 Test-organism /ml

**Q.** And the “number of test organisms” value (Pseudomonas aeruginosa [3]; 0.2% solution, 0 hr)?
**A.** 8.0 × 10^5 Test-organism /ml

**Q.** What about the “number of test organisms” value (Pseudomonas aeruginosa [3]; 0.2% solution, 24 hrs) of the same substance?
**A.** 5.5 × 10^5 Test-organism /ml

**Q.** And the “number of test organisms” value (Pseudomonas aeruginosa [3]; 0.2% solution, 48 hrs)?
**A.** 3.0 × 10^3 Test-organism /ml

**Q.** And the “number of test organisms” value (Pseudomonas aeruginosa [3]; 0.2% solution, 72 hrs)?
**A.** <100 Test-organism /ml

**Q.** What about the “number of test organisms” value (Pseudomonas aeruginosa [3]; 0.5% solution, 0 hr) of the same substance?
**A.** 1.0 × 10^6 Test-organism /ml

**Q.** And the “number of test organisms” value (Pseudomonas aeruginosa [3]; 0.5% solution, 24 hrs)?
**A.** 6.0 × 10^5 Test-organism /ml

**Q.** What about the “number of test organisms” value (Pseudomonas aeruginosa [3]; 0.5% solution, 48 hrs) of the same substance?
**A.** 3.0 × 10^3 Test-organism /ml

**Q.** What about the “number of test organisms” value (Pseudomonas aeruginosa [3]; 0.5% solution, 72 hrs) of the same substance?
**A.** <100 Test-organism /ml

**Q.** What about the “activity compared (in words)” value (Pseudomonas aeruginosa [3]; Tables 4 and 5) of the same substance?
**A.** obviously more effective than sodium hyaluronate solutions

**Q.** What about the “CID (microbicidal concentration)” value (Staphylococcus areus) of the same substance?
**A.** 120 µg/mL

**Q.** And the “MIC (minimum inhibitory concentration)” value (Staphylococcus areus)?
**A.** 40 µg/mL

— patent US6348190B1, “Pharmaceutical compositions with antimicrobial activity” (Richter Gedeon Vegyeszeti Gyar Rt., priority 1996, dated 2002)
